Like-named read-outs stand apart in the source and are kept apart here.
Test system: Jurkat cells
Assay: Cytotoxicity of compounds, CellTiter-Glo
Type: cell-based, Human
Settings: Homo sapiens, Jurkat, read-out: EC50
Excerpt: Cell lines used: Human T-cell leukemia cell line Jurkat (ATCC: TIB-152); HCC1954 (ATCC: CRL. 2338); Human Pancreatic cells lines: AsPC-1 (ATCC: CRL-1682), BxPC-3 (ATCC: CRL.1687), HPAF-II (ATCC: CRL.1997), MiaPaCa2 (ATCC: CRL.1420), PANC-1 (ATCC: CRL.1469), Capan-1 (ATCC: HTB-79), Capan-2 (ATCC: HTB-80) and the Human gastric carcinoma cell line NCI-N87 (ATCC: CRL. 5822); AML-193 (ATCC: CRL.9589), CCRF-CEM (ATCC: CCL-119), DU145 (ATCC: HTB-81), PC-3 (ATCC: CRL.1435), A-431 (ATCC: CRL.1555), HT-29 (ATCC: HTB-38), A-172 (ATCC: CRL.1620), NCI-H358 (ATCC: CRL.5807), A549 (ATCC: CCL-185), Colo-205 (ATCC: CCL-222), MDA-MB-231 (ATCC: HTB-26), OVCAR-3 (ATCC: HTB-161), OV-90 (ATCC: CRL.11732), OE19 (Sigma: 96071721), RT 112/84 (Sigma: 85061106).
On the day prior to adding compounds, HCC1954 AsPC-1, BxPC-3, HPAF-II, MiaPaCa2, PANC-1, Capan-1, Capan-2 and NCI-N87 cells were added to opaque-walled 96-well tissue culture-treated microtiter plates using complete growth medium at a density of 2500 cells/100 microlitre (uL) of medium. These adherant cell lines cells were incubated for one night at 37° C./5% CO2 to allow the cells to attach to the microtiter plate surface. On the day that compounds were added, Jurkat cells are added to separate 96-well microtiter plates at 2500 cells/100 uL using the same growth medium as HCC1954. Compound were first serially diluted using dimethyl sulfoxide, and then the prepared dilutions are added to complete growth medium at five-times the final concentration—compounds were then titrated 1:3, eight steps. A control with no compound (growth medium alone) was included on each microtiter plate in sextuplicate. The prepared compounds titrations were added (twenty-five uL/well) in triplicate. The cells and compound titrations were incubated at 37° C./5% CO2 for three nights. After the incubation, cell viability is measured using CellTiter-Glo® reagent by adding thirty uL of prepared CellTiter-Glo® to each assay well. The assay is incubated for at least twenty minutes in the dark prior to measuring emitted luminescence using a microplate luminometer (500 ms integration time). The collected relative luminescence units (RLU) are converted to % cytotoxicity using the Growth medium alone control mentioned above (% Cytotoxicity=1−[Well RLU/average medium alone control RLU]).
GraphPad Prism was used for generation of EC50 values using three parameter non-linear regression curve fitting.

[1] = Table 3, Cytotoxicity of Compounds on Jurkat Cells
[2] = Table 6, Compound Cytotoxicity on Jurkat
[3] = Table 7, Cytotoxicity on Jurkat

SMILES: CN[C@H](C(=O)N[C@H](C(=O)N(C)[C@H](/C=C(\C)C(=O)NS(=O)(=O)c1c(C)cc(C)cc1C)C(C)C)C(C)(C)C)C(C)(C)c1ccccc1 [Compound 12, (S,E)-N-(mesitylsulfonyl)-2,5-dimethyl-4-((S)—N,3,3-trimethyl-2-((S)-3-methyl-2-(methylamino)-3-phenylbutanamido)butanamido)hex-2-enamide]
- EC50 [1]: 0.03 nM

SMILES: CN[C@H](C(=O)N[C@H](C(=O)N(C)[C@H](/C=C(\C)C(=O)NS(=O)(=O)c1ccc(C2(NC(=O)C(F)(F)F)CC2)cc1)C(C)C)C(C)(C)C)C(C)(C)c1ccccc1 [Compound 62, (S,E)-2,5-dimethyl-N-(4-(1-(2,2,2-trifluoroacetamido)cyclopropyl)phenylsulfonyl)-4-((S)—N,3,3-trimethyl-2-((S)-3-methyl-2-(methylamino)-3-phenylbutanamido)butanamido)hex-2-enamide]
- EC50 [2]: 1.2 nM

SMILES: CN[C@H](C(=O)N[C@H](C(=O)N(C)[C@H](/C=C(\C)C(=O)NS(=O)(=O)NCc1ccccc1C(F)(F)F)C(C)C)C(C)(C)C)C(C)(C)c1ccccc1 [Compound 32, (S,E)-2,5-dimethyl-N—(N-(2-(trifluoromethyl)benzyl)sulfamoyl)-4-((S)—N,3,3-trimethyl-2-((S)-3-methyl-2-(methylamino)-3-phenylbutanamido)butanamido)hex-2-enamide]
- EC50 [1]: 0.265 nM

SMILES: CN[C@H](C(=O)N[C@H](C(=O)N(C)[C@H](/C=C(\C)C(=O)NS(=O)(=O)Cc1ccc(CNC(=O)C(F)(F)F)cc1)C(C)C)C(C)(C)C)C(C)(C)c1ccccc1 [Compound 76, (S,E)-2,5-dimethyl-N-(4-((2,2,2-trifluoroacetamido)methyl)benzylsulfonyl)-4-((S)—N,3,3-trimethyl-2-((S)-3-methyl-2-(methylamino)-3-phenylbutanamido)butanamido)hex-2-enamide]
- EC50 [1]: 0.328 nM

SMILES: CN[C@H](C(=O)N[C@H](C(=O)N(C)[C@H](/C=C(\C)C(=O)NS(=O)(=O)c1ccc(O)cc1)C(C)C)C(C)(C)C)C(C)(C)c1ccccc1 [Compound 51, (S,E)-N-(4-hydroxyphenylsulfonyl)-2,5-dimethyl-4-((S)—N,3,3-trimethyl-2-((S)-3-methyl-2-(methylamino)-3-phenylbutanamido)butanamido)hex-2-enamide]
- EC50 [1]: 0.247 nM

SMILES: CN[C@H](C(=O)N[C@H](C(=O)N(C)[C@H](/C=C(\C)C(=O)NS(=O)(=O)N1CCCCC1)C(C)C)C(C)(C)C)C(C)(C)c1ccccc1 [Compound 27, (S,E)-2,5-dimethyl-N-(piperidin-1-ylsulfonyl)-4-((S)—N,3,3-trimethyl-2-((S)-3-methyl-2-(methylamino)-3-phenylbutanamido)butanamido)hex-2-enamide]
- EC50 [1]: 0.157 nM

SMILES: CN[C@H](C(=O)N[C@H](C(=O)N(C)[C@H](/C=C(\C)C(=O)NS(=O)(=O)c1ccc(N)c(C(F)(F)F)c1)C(C)C)C(C)(C)C)C(C)(C)c1ccccc1 [Compound 114, (S,E)-N-(4-amino-3-(trifluoromethyl)phenylsulfonyl)-2,5-di methyl-4-((S)—N,3,3-trimethyl-2-((S)-3-methyl-2-(methylamino)-3-phenylbutanamido)butanamido)hex-2-enamide]
- EC50 [2]: 0.056 nM
- EC50 [3]: 0.056 nM

SMILES: CN[C@H](C(=O)N[C@H](C(=O)N(C)[C@H](/C=C(\C)C(=O)NS(=O)(=O)c1ccc(N)c(OC(F)(F)F)c1)C(C)C)C(C)(C)C)C(C)(C)c1ccccc1 [Compound 108, (S,E)-N-(4-amino-3-(trifluoromethoxy)phenylsulfonyl)-2,5-dimethyl-4-((S)—N,3,3-trimethyl-2-((S)-3-methyl-2-(methylamino)-3-phenylbutanamido)butanamido)hex-2-enamide]
- EC50 [2]: 0.017 nM
- EC50 [3]: 0.017 nM

SMILES: CN[C@H](C(=O)N[C@H](C(=O)N(C)[C@H](/C=C(\C)C(=O)NS(=O)(=O)c1ccccc1NC(=O)C(F)(F)F)C(C)C)C(C)(C)C)C(C)(C)c1ccccc1 [Compound 97, (S,E)-2,5-dimethyl-N-(2-(2,2,2-trifluoroacetamido)phenylsulfonyl)-4-((S)—N,3,3-trimethyl-2-((S)-3-methyl-2-(methylamino)-3-phenylbutanamido)butanamido)hex-2-enamide]
- EC50 [1]: 1.62 nM
- EC50 [2]: 0.307 nM
